In patent US20210045385A1, “PYRIDAZINONE-SUBSTITUTED KETOXIMES AS HERBICIDES” (FMC Corporation, priority 2018, published 2021):

How the values were obtained:
Format in all cases: in vivo
[1] = test system: Italian ryegrass (Lolium multiflorum); assay: Test A preemergence, visual plant response rating; settings: for Ryegrass, Italian plant response rating: 125 g ai/ha, preemergence, 0 to 100 scale, 0 no effect, 100 complete control; for Ryegrass, Italian plant response rating (0 to 100 scale): 500 g ai/ha Preemergence, approx. 10 days
Source text: (§1) Seeds of plant species selected from barnyardgrass (Echinochloa crus-galli), kochia (Kochia scoparia), ragweed (common ragweed, Ambrosia elatior), Italian ryegrass (Lolium multiflorum), foxtail, giant (giant foxtail, Setaria faberii), foxtail, green (green foxtail, Setaria viridis), and pigweed (Amaranthus retroflexus) were planted into a blend of loam soil and sand and treated preemergence with a directed soil spray using test chemicals formulated in a non-phytotoxic solvent mixture which included a surfactant.
(§2) At the same time, plants selected from these weed species and also wheat (Triticum aestivum), corn (Zea mays), blackgrass (Alopecurus myosuroides), and galium (catchweed bedstraw, Galium aparine) were planted in pots containing the same blend of loam soil and sand and treated with postemergence applications of test chemicals formulated in the same manner. Plants ranged in height from 2 to 10 cm and were in the one- to two-leaf stage for the postemergence treatment. Treated plants and untreated controls were maintained in a greenhouse for approximately 10 days, after which time all treated plants were compared to untreated controls and visually evaluated for injury. Plant response ratings, summarized in Table A, are based on a 0 to 100 scale where 0 is no effect and 100 is complete control. A dash (-) response means no test result.

[2] = test system: barnyardgrass (Echinochloa crus-galli); assay: Test A preemergence, visual plant response rating; settings: for Barnyardgrass plant response rating: 125 g ai/ha, preemergence, 0 to 100 scale, 0 no effect, 100 complete control; for Barnyardgrass plant response rating (0 to 100 scale): 500 g ai/ha Preemergence, approx. 10 days
Source text: as §1, §2

[3] = test system: foxtail, giant (giant foxtail, Setaria faberii); assay: Test A preemergence, visual plant response rating; settings: for Foxtail, Giant plant response rating: 125 g ai/ha, preemergence, 0 to 100 scale, 0 no effect, 100 complete control; for Foxtail, Giant plant response rating (0 to 100 scale): 500 g ai/ha Preemergence, approx. 10 days
Source text: as §1, §2

kochia (Kochia scoparia) [4] = assay: Test A preemergence, visual plant response rating; settings: for Kochia plant response rating: 125 g ai/ha, preemergence, 0 to 100 scale, 0 no effect, 100 complete control; for Kochia plant response rating (0 to 100 scale): 500 g ai/ha Preemergence, approx. 10 days
Source text: as §1, §2

[5] = test system: pigweed (Amaranthus retroflexus); assay: Test A preemergence, visual plant response rating; settings: for Pigweed plant response rating: 125 g ai/ha, preemergence, 0 to 100 scale, 0 no effect, 100 complete control; for Pigweed plant response rating (0 to 100 scale): 500 g ai/ha Preemergence, approx. 10 days
Source text: as §1, §2

[6] = test system: Italian ryegrass (Lolium multiflorum); assay: Test A postemergence, visual plant response rating; settings: for Ryegrass, Italian plant response rating (0 to 100 scale): 500 g ai/ha, postemergence, 0 is no effect, 100 is complete control; for Ryegrass, Italian plant response rating: Postemergence, 125 g ai/ha, 0 to 100 scale (0 no effect, 100 complete control)
Source text: as §1, §2

[7] = test system: barnyardgrass (Echinochloa crus-galli); assay: Test A postemergence, visual plant response rating; settings: for Barnyardgrass plant response rating (0 to 100 scale): 500 g ai/ha, postemergence, 0 is no effect, 100 is complete control; for Barnyardgrass plant response rating: Postemergence, 125 g ai/ha, 0 to 100 scale (0 no effect, 100 complete control)
Source text: as §1, §2

[8] = test system: blackgrass (Alopecurus myosuroides); assay: Test A postemergence, visual plant response rating; settings: for Blackgrass plant response rating (0 to 100 scale): 500 g ai/ha, postemergence, 0 is no effect, 100 is complete control; for Blackgrass plant response rating: Postemergence, 125 g ai/ha, 0 to 100 scale (0 no effect, 100 complete control)
Source text: as §1, §2

corn (Zea mays) = assay: Test A postemergence, visual plant response rating; settings: for Corn plant response rating (0 to 100 scale): 500 g ai/ha, postemergence, 0 is no effect, 100 is complete control; for Corn plant response rating: Postemergence, 125 g ai/ha, 0 to 100 scale (0 no effect, 100 complete control)
Source text: as §1, §2

[9] = test system: foxtail, giant (giant foxtail, Setaria faberii); assay: Test A postemergence, visual plant response rating; settings: for Foxtail, Giant plant response rating (0 to 100 scale): 500 g ai/ha, postemergence, 0 is no effect, 100 is complete control; for Foxtail, Giant plant response rating: Postemergence, 125 g ai/ha, 0 to 100 scale (0 no effect, 100 complete control)
Source text: as §1, §2

[10] = test system: galium (catchweed bedstraw, Galium aparine); assay: Test A postemergence, visual plant response rating; settings: for Galium plant response rating (0 to 100 scale): 500 g ai/ha, postemergence, 0 is no effect, 100 is complete control; for Galium plant response rating: Postemergence, 125 g ai/ha, 0 to 100 scale (0 no effect, 100 complete control)
Source text: as §1, §2

kochia (Kochia scoparia) [11] = assay: Test A postemergence, visual plant response rating; settings: for Kochia plant response rating (0 to 100 scale): 500 g ai/ha, postemergence, 0 is no effect, 100 is complete control; for Kochia plant response rating: Postemergence, 125 g ai/ha, 0 to 100 scale (0 no effect, 100 complete control)
Source text: as §1, §2

[12] = test system: pigweed (Amaranthus retroflexus); assay: Test A postemergence, visual plant response rating; settings: for Pigweed plant response rating (0 to 100 scale): 500 g ai/ha, postemergence, 0 is no effect, 100 is complete control; for Pigweed plant response rating: Postemergence, 125 g ai/ha, 0 to 100 scale (0 no effect, 100 complete control)
Source text: as §1, §2

[13] = test system: ragweed (common ragweed, Ambrosia elatior); assay: Test A postemergence, visual plant response rating; settings: for Ragweed plant response rating (0 to 100 scale): 500 g ai/ha, postemergence, 0 is no effect, 100 is complete control; for Ragweed plant response rating: Postemergence, 125 g ai/ha, 0 to 100 scale (0 no effect, 100 complete control)
Source text: as §1, §2

[14] = test system: wheat (Triticum aestivum); assay: Test A postemergence, visual plant response rating; settings: for Wheat plant response rating (0 to 100 scale): 500 g ai/ha, postemergence, 0 is no effect, 100 is complete control; for Wheat plant response rating: Postemergence, 125 g ai/ha, 0 to 100 scale (0 no effect, 100 complete control)
Source text: as §1, §2

[15] = test system: barnyardgrass (Echinochloa crus-galli); assay: Test B flooded paddy test, visual plant response rating; settings: 250 g ai/ha, Flood, applied to paddy water, 2-leaf stage, evaluated after 13 to 15 days
Procedure: (§3) Plant species in the flooded paddy test selected from rice (Oryza sativa), sedge, umbrella (small-flower umbrella sedge, Cyperus difformis), ducksalad (Heteranhera limosa), and barnyardgrass (Echinochloa crus-galli) were grown to the 2-leaf stage for testing. At time of treatment, test pots were flooded to 3 cm above the soil surface treated by application of test compounds directly to the paddy water, and then maintained at that water depth for the duration of the test. Treated plants and controls were maintained in a greenhouse for 13 to 15 days, after which time all species were compared to controls and visually evaluated. […] A dash (-) response means no test result.

[16] = test system: ducksalad (Heteranhera limosa); assay: as above; settings: 250 g ai/ha, Flood, applied to paddy water, 2-leaf stage, evaluated after 13 to 15 days
Procedure: as §3

rice (Oryza sativa) = assay: as above; settings: 250 g ai/ha, Flood, applied to paddy water, 2-leaf stage, evaluated after 13 to 15 days
Procedure: as §3

[17] = test system: sedge, umbrella (small-flower umbrella sedge, Cyperus difformis); assay: as above; settings: 250 g ai/ha, Flood, applied to paddy water, 2-leaf stage, evaluated after 13 to 15 days
Procedure: as §3

With `Cc1nn(C)c(=O)c(/C(=N/OC(C)C)c2ccc(F)c3ccccc23)c1O` [Compound 88] the “Ryegrass, Italian plant response rating” value [1] was 90, the “Ryegrass, Italian plant response rating (0 to 100 scale)” value (“Ryegrass … (0 to 100 scale)” below) [1] was 100 and the “Barnyardgrass plant response rating” value [2] was 70. For the same molecule, the “Barnyardgrass plant response rating (0 to 100 scale)” value [2] was 90, the “Foxtail, Giant plant response rating” value [3] was 90 and the “Foxtail, Giant plant response rating (0 to 100 scale)” value (shortened to “Foxtail … (0 to 100 scale)”) [3] was 100. For the same molecule, the “Kochia plant response rating” value (kochia (Kochia scoparia) [4]) was 10, the “Kochia plant response rating (0 to 100 scale)” value (kochia (Kochia scoparia) [4]) was 90 and the “Pigweed plant response rating” value [5] was 100. The “Pigweed plant response rating (0 to 100 scale)” value [5] was 100, the “Ryegrass … (0 to 100 scale)” value [6] was 100 and the “Ryegrass, Italian plant response rating” value [6] was 100. For the same molecule, the “Barnyardgrass plant response rating (0 to 100 scale)” value [7] was 80, the “Barnyardgrass plant response rating” value [7] was 50 and the “Blackgrass plant response rating (0 to 100 scale)” value [8] was 90. For the same molecule, the “Blackgrass plant response rating” value [8] was 80, the “Corn plant response rating (0 to 100 scale)” value (corn (Zea mays)) was 30 and the “Corn plant response rating” value (corn (Zea mays)) was 10. For the same molecule, the “Foxtail … (0 to 100 scale)” value [9] was 90, the “Foxtail, Giant plant response rating” value [9] was 80 and the “Galium plant response rating (0 to 100 scale)” value [10] was 90. For the same molecule, the “Galium plant response rating” value [10] was 90, the “Kochia plant response rating (0 to 100 scale)” value (kochia (Kochia scoparia) [11]) was 70 and the “Kochia plant response rating” value (kochia (Kochia scoparia) [11]) was 60. The “Pigweed plant response rating (0 to 100 scale)” value [12] was 100, the “Pigweed plant response rating” value [12] was 90 and the “Ragweed plant response rating (0 to 100 scale)” value [13] was 90. The “Ragweed plant response rating” value [13] was 100, the “Wheat plant response rating (0 to 100 scale)” value [14] was 50 and the “Wheat plant response rating” value [14] was 10. For the same molecule, the “Plant response rating, Barnyardgrass (0 to 100 scale, 0 is no effect, 100 is complete control)” value [15] was 0, the “Plant response rating, Ducksalad (0 to 100 scale, 0 is no effect, 100 is complete control)” value [16] was 0 and the “Plant response rating, Rice (0 to 100 scale, 0 is no effect, 100 is complete control)” value (rice (Oryza sativa)) was 0. For the same molecule, the “Plant response rating, Sedge, Umbrella (0 to 100 scale, 0 is no effect, 100 is complete control)” value [17] was 0.

In the case of `Cc1nn(C)c(=O)c(/C(=N\OC(C)C)c2ccc(F)c3ccccc23)c1O` [Compound 89], the “Ryegrass, Italian plant response rating” value [1] is reported as 90, the “Ryegrass … (0 to 100 scale)” value [1] is reported as 100 and the “Barnyardgrass plant response rating” value [2] is reported as 70. For the same molecule, the “Barnyardgrass plant response rating (0 to 100 scale)” value [2] was 100, the “Foxtail, Giant plant response rating” value [3] was 90 and the “Foxtail … (0 to 100 scale)” value [3] was 100. The “Kochia plant response rating” value (kochia (Kochia scoparia) [4]) was 60, the “Kochia plant response rating (0 to 100 scale)” value (kochia (Kochia scoparia) [4]) was 90 and the “Pigweed plant response rating” value [5] was 100. For the same molecule, the “Pigweed plant response rating (0 to 100 scale)” value [5] was 100, the “Ryegrass … (0 to 100 scale)” value [6] was 100 and the “Ryegrass, Italian plant response rating” value [6] was 100. The “Barnyardgrass plant response rating (0 to 100 scale)” value [7] was 60, the “Barnyardgrass plant response rating” value [7] was 40 and the “Blackgrass plant response rating (0 to 100 scale)” value [8] was 100. For the same molecule, the “Blackgrass plant response rating” value [8] was 90, the “Corn plant response rating (0 to 100 scale)” value (corn (Zea mays)) was 30 and the “Corn plant response rating” value (corn (Zea mays)) was 20. For the same molecule, the “Foxtail … (0 to 100 scale)” value [9] was 80, the “Foxtail, Giant plant response rating” value [9] was 70 and the “Galium plant response rating (0 to 100 scale)” value [10] was 90. For the same molecule, the “Galium plant response rating” value [10] was 90, the “Kochia plant response rating (0 to 100 scale)” value (kochia (Kochia scoparia) [11]) was 80 and the “Kochia plant response rating” value (kochia (Kochia scoparia) [11]) was 70. The “Pigweed plant response rating (0 to 100 scale)” value [12] was 100, the “Pigweed plant response rating” value [12] was 80 and the “Ragweed plant response rating (0 to 100 scale)” value [13] was 90. The “Ragweed plant response rating” value [13] was 90, the “Wheat plant response rating (0 to 100 scale)” value [14] was 70 and the “Wheat plant response rating” value [14] was 50. For the same molecule, the “Plant response rating, Barnyardgrass (0 to 100 scale, 0 is no effect, 100 is complete control)” value [15] was 0, the “Plant response rating, Ducksalad (0 to 100 scale, 0 is no effect, 100 is complete control)” value [16] was 0 and the “Plant response rating, Rice (0 to 100 scale, 0 is no effect, 100 is complete control)” value (rice (Oryza sativa)) was 0. For the same molecule, the “Plant response rating, Sedge, Umbrella (0 to 100 scale, 0 is no effect, 100 is complete control)” value [17] was 0.
